{
  "source": "the supplement of paper PMC10307832",
  "assay_in_all_cases": "relative viability (nuclei count vs DMSO), 5 days (fraction); higher = more cells survive",
  "key": {"Zebularine + Olaparib": {"compound": "O=c1ncccn1[C@@H]1O[C@H](CO)[C@@H](O)[C@H]1O [Zebularine] + O=C(c1cc(Cc2n[nH]c(=O)c3ccccc23)ccc1F)N1CCN(C(=O)C2CC2)CC1 [Olaparib] (partner 8 µM)", "method_in_brief": "(§1)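 Relative viability was taken as the ratio of nuclei in treated wells to nuclei in vehicle wells. Lung cancer cell lines in 1536-well plates received compounds by pin tool one day after seeding, either one drug alone or a fixed anchor-drug dose plus five library-drug doses (not always all listed) in √10 steps. Nuclei were counted on 4× images after 5 days of treatment, and values are medians of duplicate plates.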"}, "Zebularine + Crizotinib": {"compound": "O=c1ncccn1[C@@H]1O[C@H](CO)[C@@H](O)[C@H]1O [Zebularine] + C[C@@H](Oc1cc(-c2cnn(C3CCNCC3)c2)cnc1N)c1c(Cl)ccc(F)c1Cl [Crizotinib] (partner 1 µM)", "method_in_brief": "as §1"}, "BI-D1870 + Linsitinib": {"compound": "CC(C)CCN1c2nc(Nc3cc(F)c(O)c(F)c3)ncc2N(C)C(=O)C1C [BI-D1870] + C[C@]1(O)C[C@@H](c2nc(-c3ccc4ccc(-c5ccccc5)nc4c3)c3c(N)nccn32)C1 [Linsitinib] (partner 1 µM)", "method_in_brief": "as §1"}, "Zebularine + Pemetrexed": {"compound": "O=c1ncccn1[C@@H]1O[C@H](CO)[C@@H](O)[C@H]1O [Zebularine] + Nc1nc2[nH]cc(CCc3ccc(C(=O)N[C@@H](CCC(=O)O)C(=O)O)cc3)c2c(=O)[nH]1 [Pemetrexed] (partner 0.2 µM)", "method_in_brief": "as §1"}},
  "data": [
    {"cell line": "NCI-H596", "values": [
      {"measurement": "relative viability", "setting": "Zebularine + Olaparib; first compound 1 µM", "result": 0.7},
      {"measurement": "relative viability", "setting": "Zebularine + Olaparib; first compound 3.162 µM", "result": 0.746},
      {"measurement": "relative viability", "setting": "Zebularine + Olaparib; first compound 10 µM", "result": 0.713},
      {"measurement": "relative viability", "setting": "Zebularine + Olaparib; first compound 31.62 µM", "result": 0.591},
      {"measurement": "relative viability", "setting": "Zebularine + Olaparib; first compound 100 µM", "result": 0.547},
      {"measurement": "relative viability", "setting": "Zebularine + Crizotinib; first compound 1 µM", "result": 0.994},
      {"measurement": "relative viability", "setting": "Zebularine + Crizotinib; first compound 3.162 µM", "result": 0.948},
      {"measurement": "relative viability", "setting": "Zebularine + Crizotinib; first compound 10 µM", "result": 0.85},
      {"measurement": "relative viability", "setting": "Zebularine + Crizotinib; first compound 31.62 µM", "result": 0.902},
      {"measurement": "relative viability", "setting": "Zebularine + Crizotinib; first compound 100 µM", "result": 0.988},
      {"measurement": "relative viability", "setting": "BI-D1870 + Linsitinib; first compound 0.04 µM", "result": 1.13},
      {"measurement": "relative viability", "setting": "BI-D1870 + Linsitinib; first compound 0.1265 µM", "result": 1.07},
      {"measurement": "relative viability", "setting": "BI-D1870 + Linsitinib; first compound 0.4 µM", "result": 1.05},
      {"measurement": "relative viability", "setting": "BI-D1870 + Linsitinib; first compound 1.265 µM", "result": 1.17},
      {"measurement": "relative viability", "setting": "BI-D1870 + Linsitinib; first compound 4 µM", "result": 1.07},
      {"measurement": "relative viability", "setting": "Zebularine + Pemetrexed; first compound 1 µM", "result": 0.478},
      {"measurement": "relative viability", "setting": "Zebularine + Pemetrexed; first compound 3.162 µM", "result": 0.513},
      {"measurement": "relative viability", "setting": "Zebularine + Pemetrexed; first compound 10 µM", "result": 0.428},
      {"measurement": "relative viability", "setting": "Zebularine + Pemetrexed; first compound 31.62 µM", "result": 0.42},
      {"measurement": "relative viability", "setting": "Zebularine + Pemetrexed; first compound 100 µM", "result": 0.494}
    ]},
    {"cell line": "H3255", "values": [
      {"measurement": "relative viability", "setting": "Zebularine + Olaparib; first compound 1 µM", "result": 0.624},
      {"measurement": "relative viability", "setting": "Zebularine + Olaparib; first compound 3.162 µM", "result": 0.597},
      {"measurement": "relative viability", "setting": "Zebularine + Olaparib; first compound 10 µM", "result": 0.502},
      {"measurement": "relative viability", "setting": "Zebularine + Olaparib; first compound 31.62 µM", "result": 0.577},
      {"measurement": "relative viability", "setting": "Zebularine + Olaparib; first compound 100 µM", "result": 0.513},
      {"measurement": "relative viability", "setting": "Zebularine + Crizotinib; first compound 1 µM", "result": 0.945},
      {"measurement": "relative viability", "setting": "Zebularine + Crizotinib; first compound 3.162 µM", "result": 0.853},
      {"measurement": "relative viability", "setting": "Zebularine + Crizotinib; first compound 10 µM", "result": 0.576},
      {"measurement": "relative viability", "setting": "Zebularine + Crizotinib; first compound 31.62 µM", "result": 0.91},
      {"measurement": "relative viability", "setting": "Zebularine + Crizotinib; first compound 100 µM", "result": 0.858},
      {"measurement": "relative viability", "setting": "BI-D1870 + Linsitinib; first compound 0.04 µM", "result": 0.94},
      {"measurement": "relative viability", "setting": "BI-D1870 + Linsitinib; first compound 0.1265 µM", "result": 0.959},
      {"measurement": "relative viability", "setting": "BI-D1870 + Linsitinib; first compound 0.4 µM", "result": 0.935},
      {"measurement": "relative viability", "setting": "BI-D1870 + Linsitinib; first compound 1.265 µM", "result": 1.1},
      {"measurement": "relative viability", "setting": "BI-D1870 + Linsitinib; first compound 4 µM", "result": 0.907},
      {"measurement": "relative viability", "setting": "Zebularine + Pemetrexed; first compound 1 µM", "result": 0.641},
      {"measurement": "relative viability", "setting": "Zebularine + Pemetrexed; first compound 3.162 µM", "result": 0.576},
      {"measurement": "relative viability", "setting": "Zebularine + Pemetrexed; first compound 10 µM", "result": 0.553},
      {"measurement": "relative viability", "setting": "Zebularine + Pemetrexed; first compound 31.62 µM", "result": 0.516},
      {"measurement": "relative viability", "setting": "Zebularine + Pemetrexed; first compound 100 µM", "result": 0.563}
    ]},
    {"cell line": "SK-MES-1", "values": [
      {"measurement": "relative viability", "setting": "Zebularine + Olaparib; first compound 1 µM", "result": 0.947},
      {"measurement": "relative viability", "setting": "Zebularine + Olaparib; first compound 3.162 µM", "result": 0.722},
      {"measurement": "relative viability", "setting": "Zebularine + Olaparib; first compound 10 µM", "result": 0.479},
      {"measurement": "relative viability", "setting": "Zebularine + Olaparib; first compound 31.62 µM", "result": 0.393},
      {"measurement": "relative viability", "setting": "Zebularine + Olaparib; first compound 100 µM", "result": 0.268},
      {"measurement": "relative viability", "setting": "Zebularine + Crizotinib; first compound 1 µM", "result": 1.07},
      {"measurement": "relative viability", "setting": "Zebularine + Crizotinib; first compound 3.162 µM", "result": 1.03},
      {"measurement": "relative viability", "setting": "Zebularine + Crizotinib; first compound 10 µM", "result": 0.645},
      {"measurement": "relative viability", "setting": "Zebularine + Crizotinib; first compound 31.62 µM", "result": 0.648},
      {"measurement": "relative viability", "setting": "Zebularine + Crizotinib; first compound 100 µM", "result": 0.325},
      {"measurement": "relative viability", "setting": "BI-D1870 + Linsitinib; first compound 0.04 µM", "result": 1.06},
      {"measurement": "relative viability", "setting": "BI-D1870 + Linsitinib; first compound 0.1265 µM", "result": 1.05},
      {"measurement": "relative viability", "setting": "BI-D1870 + Linsitinib; first compound 0.4 µM", "result": 1.02},
      {"measurement": "relative viability", "setting": "BI-D1870 + Linsitinib; first compound 1.265 µM", "result": 0.902},
      {"measurement": "relative viability", "setting": "BI-D1870 + Linsitinib; first compound 4 µM", "result": 0.705},
      {"measurement": "relative viability", "setting": "Zebularine + Pemetrexed; first compound 1 µM", "result": 1.08},
      {"measurement": "relative viability", "setting": "Zebularine + Pemetrexed; first compound 3.162 µM", "result": 0.918},
      {"measurement": "relative viability", "setting": "Zebularine + Pemetrexed; first compound 10 µM", "result": 0.613},
      {"measurement": "relative viability", "setting": "Zebularine + Pemetrexed; first compound 31.62 µM", "result": 0.709},
      {"measurement": "relative viability", "setting": "Zebularine + Pemetrexed; first compound 100 µM", "result": 0.322}
    ]},
    {"cell line": "NCI-H1437", "values": [
      {"measurement": "relative viability", "setting": "Zebularine + Olaparib; first compound 1 µM", "result": 0.661},
      {"measurement": "relative viability", "setting": "Zebularine + Olaparib; first compound 3.162 µM", "result": 0.641},
      {"measurement": "relative viability", "setting": "Zebularine + Olaparib; first compound 10 µM", "result": 0.511},
      {"measurement": "relative viability", "setting": "Zebularine + Olaparib; first compound 31.62 µM", "result": 0.443},
      {"measurement": "relative viability", "setting": "Zebularine + Olaparib; first compound 100 µM", "result": 0.482},
      {"measurement": "relative viability", "setting": "Zebularine + Crizotinib; first compound 1 µM", "result": 1.09},
      {"measurement": "relative viability", "setting": "Zebularine + Crizotinib; first compound 3.162 µM", "result": 0.987},
      {"measurement": "relative viability", "setting": "Zebularine + Crizotinib; first compound 31.62 µM", "result": 0.902},
      {"measurement": "relative viability", "setting": "Zebularine + Crizotinib; first compound 100 µM", "result": 0.31},
      {"measurement": "relative viability", "setting": "BI-D1870 + Linsitinib; first compound 0.04 µM", "result": 1.06},
      {"measurement": "relative viability", "setting": "BI-D1870 + Linsitinib; first compound 0.1265 µM", "result": 0.943},
      {"measurement": "relative viability", "setting": "BI-D1870 + Linsitinib; first compound 0.4 µM", "result": 0.979},
      {"measurement": "relative viability", "setting": "BI-D1870 + Linsitinib; first compound 1.265 µM", "result": 0.909},
      {"measurement": "relative viability", "setting": "BI-D1870 + Linsitinib; first compound 4 µM", "result": 0.691},
      {"measurement": "relative viability", "setting": "Zebularine + Pemetrexed; first compound 1 µM", "result": 0.322},
      {"measurement": "relative viability", "setting": "Zebularine + Pemetrexed; first compound 3.162 µM", "result": 0.335},
      {"measurement": "relative viability", "setting": "Zebularine + Pemetrexed; first compound 10 µM", "result": 0.276},
      {"measurement": "relative viability", "setting": "Zebularine + Pemetrexed; first compound 31.62 µM", "result": 0.295},
      {"measurement": "relative viability", "setting": "Zebularine + Pemetrexed; first compound 100 µM", "result": 0.275}
    ]}
  ]
}
